≈ marks a conversion by molar mass, not a printed value. Like-named read-outs stand apart in the source and are kept apart here.
Experiments:
E. coli CSH2 (RK1) = assay: microbe, parasite or virus in culture; assay type: cell-based; details: 10^6 CFU/ml; for MIC: Escherichia coli, 16 h, read-out: Minimum Inhibitory Concentration (MIC), *E. coli CSH2 (RK1), lactamase-producing strain
Outline: (§1)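 MIC in μg/ml, read after 16 h at 37° C. on Mueller Hinton agar carrying graded compound levels; inoculum 10^6 CFU/ml from overnight Mueller Hinton broth.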

E. coli CSH(RE45) = assay: microbe, parasite or virus in culture; assay type: cell-based; details: 10^6 CFU/ml; for MIC: Escherichia coli, 16 h, read-out: Minimum Inhibitory Concentration (MIC), *E. coli CSH(RE45), lactamase-producing strain
Outline: as §1

S. marcescens No. 16-2 = assay: in vitro antibacterial activity, agar plate dilution method (MIC); assay type: cell-based; details: for MIC: Serratia marcescens, NO.162, 16 h, read-out: Minimum Inhibitory Concentration (MIC)
Outline: as §1

K. pneumoniae PCI-602 = assay: as above; assay type: cell-based; details: Klebsiella pneumoniae, PCI602, 16 h, read-out: Minimum Inhibitory Concentration (MIC), K. pneumoniae PCI-602; 10^6 CFU/ml
Outline: as §1

E. cloacae 963 = assay: as above; assay type: cell-based; details: 10^6 CFU/ml
Outline: as §1

E. cloacae Nek 39 = assay: as above; assay type: cell-based; details: 10^6 CFU/ml; for MIC: Enterobacter cloacae, NEK39, 16 h
Outline: as §1

S. marcescens IAM 1184 = assay: as above; assay type: cell-based; details: Serratia marcescens, IAM1184, 16 h, read-out: Minimum Inhibitory Concentration (MIC)
Outline: as §1

K. oxytoca GN10650 = assay: as above; assay type: cell-based; details: 10^6 CFU/ml; for MIC: Klebsiella oxytoca
Outline: as §1

E. coli NIHJ JC2 = assay: as above; assay type: cell-based; details: for MIC: Escherichia coli, NIHJJC2, 16 h, read-out: Minimum Inhibitory Concentration (MIC), E. coli NIHJ JC2, 10^6 CFU/ml, 37° C.
Outline: as §1

S. aureus 209P NIHJ-JC1 = assay: as above; assay type: cell-based; details: Staphylococcus aureus, 16 h
Outline: as §1

P. vulgaris No. 33 = assay: as above; assay type: cell-based; details: 10^6 CFU/ml; for MIC: Proteus vulgaris
Outline: as §1

P. vulgaris HX-19 = assay: as above; assay type: cell-based; details: for MIC: Proteus vulgaris, HX19, 16 h, read-out: Minimum Inhibitory Concentration (MIC)
Outline: as §1

M. morganii GN5407 = assay: as above; assay type: cell-based; details: 10^6 CFU/ml; for MIC: Morganella morganii
Outline: as §1

E. coli GN5482 = assay: as above; assay type: cell-based; details: Escherichia coli, GN5482, 16 h
Outline: as §1

K. pneumoniae No. 42 = assay: as above; assay type: cell-based; details: 10^6 CFU/ml; for MIC: Klebsiella pneumoniae
Outline: as §1

Ps. cepacia 23 = assay: as above; assay type: cell-based, Pseudomonas cepacia; details: read-out: Minimum Inhibitory Concentration (MIC)
Outline: as §1

Ps. aeruginosa IF03445 = assay: as above; assay type: cell-based, Pseudomonas aeruginosa; details: 10^6 CFU/ml; for MIC: Pseudomonas aeruginosa
Outline: as §1

Ps. aeruginosa AKR17 = assay: as above; assay type: cell-based, Pseudomonas aeruginosa; details: Pseudomonas aeruginosa, read-out: Minimum Inhibitory Concentration (MIC)
Outline: as §1

Ps. aeruginosa AK 109 = assay: as above; assay type: cell-based, Pseudomonas aeruginosa; details: Pseudomonas aeruginosa, AK109, 16 h
Outline: as §1

A. calcoaceticus No. 4 = assay: as above; assay type: cell-based, Acinetobacter calcoaceticus; details: 10^6 CFU/ml; for MIC: Acinetobacter calcoaceticus, NO.4, 16 h
Outline: as §1

[1] = *S. marcescens No. 16-2, lactamase-producing strain, 10^6 CFU/ml
[2] = Enterobacter cloacae, 963, 16 h, read-out: Minimum Inhibitory Concentration (MIC), E. cloacae 963
[3] = read-out: Minimum Inhibitory Concentration (MIC), *E. cloacae Nek 39, lactamase-producing strain
[4] = GN10650, 16 h, read-out: Minimum Inhibitory Concentration (MIC), *K. oxytoca GN10650, lactamase-producing strain
[5] = S. aureus 209P NIHJ-JC1, 10^6 CFU/ml, 37° C., 16 hours, read-out: Minimum Inhibitory Concentration (MIC)
[6] = NO.33, 16 h, read-out: Minimum Inhibitory Concentration (MIC), *P. vulgaris No. 33, lactamase-producing strain
[7] = GN5407, 16 h, read-out: Minimum Inhibitory Concentration (MIC), *M. morganii GN5407, lactamase-producing strain
[8] = read-out: Minimum Inhibitory Concentration (MIC)
[9] = NO.42, 16 h, read-out: Minimum Inhibitory Concentration (MIC), *K. pneumoniae No. 42, lactamase-producing strain
[10] = Burkholderia cepacia, 16 h, Ps. cepacia 23, 10^6 CFU/ml
[11] = IF03445, 16 h, read-out: Minimum Inhibitory Concentration (MIC), Ps. aeruginosa IF03445
[12] = 16 h, Ps. aeruginosa AKR17, 10^6 CFU/ml
[13] = read-out: Minimum Inhibitory Concentration (MIC), Ps. aeruginosa AK 109, 10^6 CFU/ml
[14] = read-out: Minimum Inhibitory Concentration (MIC), A. calcoaceticus No. 4
[15] = S. marcescens IAM 1184, 10^6 CFU/ml

SMILES | MIC (E. coli CSH2 (RK1)) [µg/mL] | MIC (E. coli CSH(RE45)) [µg/mL] | MIC (K. pneumoniae PCI-602) [µg/mL] | MIC (E. cloacae 963; [2]) [µg/mL] | MIC (E. cloacae Nek 39; [3]) [µg/mL] | MIC (S. marcescens IAM 1184) [µg/mL] | MIC (K. oxytoca GN10650; [4]) [µg/mL] | MIC (E. coli NIHJ JC2) [µg/mL] | MIC (S. aureus 209P NIHJ-JC1; [5]) [µg/mL] | MIC (P. vulgaris No. 33; [6]) [µg/mL] | MIC (P. vulgaris HX-19; P. vulgaris HX-19, 10^6 CFU/ml) [µg/mL] | MIC (M. morganii GN5407; [7]) [µg/mL] | MIC (E. coli GN5482; [8]) [µg/mL] | MIC (K. pneumoniae No. 42; [9]) [µg/mL] | MIC (Ps. cepacia 23; [10]) [µg/mL] | MIC (Ps. aeruginosa IF03445; [11]) [µg/mL] | MIC (Ps. aeruginosa AKR17; [12]) [µg/mL] | MIC (Ps. aeruginosa AK 109; [13]) [µg/mL] | MIC (A. calcoaceticus No. 4; [14]) [µg/mL] | MIC (S. marcescens No. 16-2) [µg/mL] | other results
CC(C)(O/N=C(\C(=O)N[C@@H]1C(=O)N2C(C(=O)O)=C(CSc3nc(-c4ccc(O)cc4)c(CC(=O)O)s3)CS[C@H]12)c1csc(N)n1)C(=O)O [compound 19, reference compound] | 1.56 (≈ 2.12 µM) | 1.56 (≈ 2.12 µM) | 0.39 (≈ 0.531 µM) | 3.12 (≈ 4.25 µM) | 6.25 (≈ 8.51 µM) | 0.78 (≈ 1.06 µM) | 1.56 (≈ 2.12 µM) | 3.12 (≈ 4.25 µM) | 50 (≈ 68 µM) | 0.05 (≈ 0.068 µM) | < 0.006 | 1.56 (≈ 2.12 µM) | 3.12 (≈ 4.25 µM) | 1.56 (≈ 2.12 µM) | 0.2 (≈ 0.272 µM) | 12.5 (≈ 17 µM) | 25 (≈ 34 µM) | 6.25 (≈ 8.51 µM) | 6.25 (≈ 8.51 µM) | – | MIC (S. marcescens No. 16-2; [1]): 25 µg/mL (≈ 34 µM)
CCON=C(C(=O)N[C@@H]1C(=O)N2C(C(=O)[O-])=C(CSc3nc(-c4ccc(OC(C)=O)c(OC(C)=O)c4)cs3)CS[C@H]12)c1csc(N)n1.[Na+] [Ex. 49, sodium 3-[4-(3,4-diacetoxyphenyl)-thiazol-2-yl]thiomethyl-7β-[2-(2-aminothiazol-4-yl)-2-ethoxyiminoacetamido]-3-cephem-4-carboxylate] | 0.025 | 0.05 | < 0.006 | 0.1 | 0.78 | 0.1 | 6.25 | 0.39 | – | 0.05 | – | 0.1 | – | 0.05 | – | 0.78 | – | 0.78 | 0.39 | 3.12 | MIC (S. aureus 209P NIHJ-JC1; read-out: Minimum Inhibitory Concentration (MIC), S. aureus 209P NIHJ-JC1, 10^6 CFU/ml, 37° C., 16 hours): 1.56 µg/mL; MIC (P. vulgaris HX-19): 0.0125 µg/mL; MIC (E. coli GN5482; read-out: Minimum Inhibitory Concentration (MIC), *E. coli GN5482, lactamase-producing strain, 10^6 CFU/ml): 1.56 µg/mL; MIC (Ps. cepacia 23; Burkholderia cepacia, 23, 16 h): 0.05 µg/mL; MIC (Ps. aeruginosa AKR17; AKR17, 16 h): 100 µg/mL
CC(=O)Oc1ccc(-c2nc(SCC3=C(C(=O)O)N4C(=O)C(NC(=O)C(=NOC(C(=O)O)c5ccccc5)c5csc(N)n5)C4SC3)sc2CC(=O)O)cc1OC(C)=O (single isomer, unassigned) [Example 61 DA] | – | – | < 0.006 | 0.39 (≈ 0.442 µM) | – | – | – | – | 25 (≈ 28.3 µM) | – | – | – | 0.39 (≈ 0.442 µM) | – | < 0.006 | – | – | – | – | – | Minimum Inhibitory Concentration (MIC) (E. coli CSH2 (RK1); *E. coli CSH2 (RK1), lactamase-producing strain): 0.0125 µg/mL; Minimum Inhibitory Concentration (MIC) (E. coli CSH(RE45); *E. coli CSH(RE45), lactamase-producing strain): 3.12 µg/mL; Minimum Inhibitory Concentration (MIC) (S. marcescens No. 16-2; [1]): 0.78 µg/mL; Minimum Inhibitory Concentration (MIC) (E. cloacae Nek 39; *E. cloacae Nek 39, lactamase-producing strain): 0.1 µg/mL; MIC (S. marcescens IAM 1184; [15]): 0.05 µg/mL (≈ 0.0566 µM); Minimum Inhibitory Concentration (MIC) (K. oxytoca GN10650; *K. oxytoca GN10650, lactamase-producing strain): 0.05 µg/mL; Minimum Inhibitory Concentration (MIC) (E. coli NIHJ JC2; E. coli NIHJ JC2, 10^6 CFU/ml, 37° C., 16 hours): 0.78 µg/mL; Minimum Inhibitory Concentration (MIC) (P. vulgaris No. 33; *P. vulgaris No. 33, lactamase-producing strain): 0.025 µg/mL; Minimum Inhibitory Concentration (MIC) (P. vulgaris HX-19; P. vulgaris HX-19, 10^6 CFU/ml): < 0.006 µg/mL; Minimum Inhibitory Concentration (MIC) (M. morganii GN5407; *M. morganii GN5407, lactamase-producing strain): 0.05 µg/mL; Minimum Inhibitory Concentration (MIC) (K. pneumoniae No. 42; *K. pneumoniae No. 42, lactamase-producing strain): 0.1 µg/mL; Minimum Inhibitory Concentration (MIC) (Ps. aeruginosa IF03445; Ps. aeruginosa IF03445): 0.39 µg/mL; MIC (Ps. aeruginosa AKR17; AKR17, 16 h): 0.39 µg/mL (≈ 0.442 µM); MIC (Ps. aeruginosa AK 109; [8]): 0.39 µg/mL (≈ 0.442 µM); Minimum Inhibitory Concentration (MIC) (A. calcoaceticus No. 4; A. calcoaceticus No. 4): 0.1 µg/mL
CC(C)(O/N=C(\C(=O)N[C@@H]1C(=O)N2C(C(=O)O)=C(CSc3nnc(-c4ccccc4)s3)CS[C@H]12)c1csc(N)n1)C(=O)O [compound 6, disodium 7β-[2-(2-aminothiazol-4-yl)-(1-carboxylate-1-methylethoxyimino)acetamido]-3-(5-phenyl-1,3,4-thiadiazol-2-yl) thiomethyl-3-cephem-4carboxylate, reference compound] | 3.12 | 3.12 | 0.1 | – | – | – | – | 3.12 | – | – | < 0.006 | – | 3.12 | – | – | – | > 100 | – | – | 12.5 | MIC (E. cloacae 963; Enterobacter cloacae, 16 h, E. cloacae 963, read-out: Minimum Inhibitory Concentration (MIC)): 6.25 µg/mL; MIC (E. cloacae Nek 39; *E. cloacae Nek 39, lactamase-producing strain, read-out: Minimum Inhibitory Concentration (MIC)): 50 µg/mL; MIC (S. marcescens IAM 1184; [15]): 1.56 µg/mL; MIC (K. oxytoca GN10650; 16 h, *K. oxytoca GN10650, lactamase-producing strain, read-out: Minimum Inhibitory Concentration (MIC)): 6.25 µg/mL; MIC (S. aureus 209P NIHJ-JC1; [8]): 3.12 µg/mL; MIC (P. vulgaris No. 33; 16 h, *P. vulgaris No. 33, lactamase-producing strain, read-out: Minimum Inhibitory Concentration (MIC)): 0.39 µg/mL; MIC (M. morganii GN5407; 16 h, *M. morganii GN5407, lactamase-producing strain, read-out: Minimum Inhibitory Concentration (MIC)): 6.25 µg/mL; MIC (K. pneumoniae No. 42; 16 h, *K. pneumoniae No. 42, lactamase-producing strain, read-out: Minimum Inhibitory Concentration (MIC)): 6.25 µg/mL; MIC (Ps. cepacia 23; Burkholderia cepacia, 23, 16 h): 12.5 µg/mL; MIC (Ps. aeruginosa IF03445; 16 h, Ps. aeruginosa IF03445, read-out: Minimum Inhibitory Concentration (MIC)): 50 µg/mL; MIC (Ps. aeruginosa AK 109; Ps. aeruginosa AK 109, 10^6 CFU/ml, read-out: Minimum Inhibitory Concentration (MIC)): 100 µg/mL; MIC (A. calcoaceticus No. 4; A. calcoaceticus No. 4, read-out: Minimum Inhibitory Concentration (MIC)): 6.25 µg/mL

From US5061794A, “Cephalosporin derivatives, and antibacterial agents” (priority 1986, dated 1991)
